≈ marks a conversion by molar mass, not a printed value.
Columns and labels:
Candida albicans 4180 = assay: Broth microdilution antifungal susceptibility (MIC/MFC); format: cell-based; conditions: strain 4180, FLC susceptible
Procedure: (§1) In this study, 10 clinical Candida albicans isolates, comprising of 5 fluconazole susceptible and 5 fluconazole resistant, were used. C. albicans SC5314 was also used as a control laboratory strain. Clinical strains used in this study were stored at −80 °C supplemented with 20% glycerol in the Department of Clinical Microbiology and Infectious Diseases, University of the Witwatersrand, Johannesburg and were previously collected under the ethical clearance number M000402, obtained from the Human Research Ethics Committee, University of the Witwatersrand. For experimental purpose each strain from glycerol stock was recovered on Sabouraud Dextrose (SDA) agar plates at 37 °C for 24 h.
(§2) Minimum Inhibitory Concentration (MIC) and Minimum Fungicidal Concentrations (MFC) of all newly synthesized eugenol-tosylate congeners (ETC-1–ETC-7) against C. albicans strains were determined by broth microdilution assay in accordance with the approved guidelines described by Clinical and Laboratory Standards Institute (CLSI) guidelines M27-A[38]. The test compounds were prepared in 1% DMSO to a stock concentration of 8192 µg/ml. Two-fold dilutions of test compounds (100 µL) were prepared in 96-well flat-bottom microtiter plates, inoculated with 100 µl of inoculum (1 × 10^6 cells/mL) and incubated at 37 °C for 24 hours. In every set of experiment, positive control (fluconazole), negative vehicle control (1% DMSO) and culture control (media and cells only) were included. MIC’s were determined visibly as the lowest concentration of the test compounds that inhibited growth of test organism. To determine MFC, each well without visible growth was sub-cultured onto agar plates. Concentration in the first well with no growth on plate was taken as MFC. […] The experiment was performed in triplicate to validate the results.

Candida albicans 4179 = assay: as above; format: cell-based; conditions: strain 4179, FLC susceptible
Procedure: as §1, §2

Candida albicans 4324 = assay: as above; format: cell-based; conditions: strain 4324, FLC resistant
Procedure: as §1, §2

Candida albicans 4135 = assay: as above; format: cell-based; conditions: strain 4135, FLC resistant
Procedure: as §1, §2

Candida albicans 4106 = assay: as above; format: cell-based; conditions: strain 4106, FLC resistant
Procedure: as §1, §2

[1] = system: C. albicans 4175, C. albicans 5112 and C. albicans SC5314; assay: TUNEL assay for DNA damage; format: cell-based, Candida albicans; conditions: 0.5 × MIC, 1 × MIC and 2 × MIC, compared to the negative control; dose dependent
Procedure: To study the effect of test compounds on apoptotic markers protoplasts were prepared as described previously, with modifications. Briefly, mid-exponential phase cells were harvested and exposed to various concentrations of test compounds (0.5 × MIC, 1 × MIC and 2×MIC) for 3 h. The cells were then washed twice with protoplast buffer- I (1 M sorbitol, 50 mM tris base, 10 mM MgCl2 and 30 mM DTT) and incubated in the same buffer for 15 minutes at 25 °C, followed by centrifugation at 1500 rpm for 5 minutes. Supernatant was removed and cells were incubated with buffer- II (1 M sorbitol, 50 mM tris base, 10 mM MgCl2 and 1 mM DTT) supplemented with lyticase enzyme (≥1 µg/mL) used to digest the cell wall for 1 h at 25 °C. Buffer- II were removed by centrifugation and then cells were incubated with buffer- III (1 M sorbitol, 50 mM tris base and 10 mM MgCl2) for 20 minutes at room temperature. After the incubation cells were again centrifuged at 1500 rpm for 5 minutes and supernatant was discarded. […]
TUNEL assay was used to detect the DNA damage, a hallmark for late stages of apoptosis. […] Slides were examined by fluorescence microscopy using Zeiss Laser Scanning Confocal Microscope (LSM) 780 (Carl Zeiss Microscopy, Jena, Germany) with an excitation wavelength of 495 nm and emission wavelength of 519 nm. […] Images were further analyzed by using software ImageJ.

[2] = system: C. albicans SC5314, C. albicans 4175 and C. albicans 5112; assay: JC-10 mitochondrial membrane potential assay; format: cell-based, Candida albicans; conditions: 3 h, range over three strains, vs untreated control
Procedure: To study the effect of test compounds on apoptotic markers protoplasts were prepared as described previously, with modifications. Briefly, mid-exponential phase cells were harvested and exposed to various concentrations of test compounds (0.5 × MIC, 1 × MIC and 2×MIC) for 3 h. The cells were then washed twice with protoplast buffer- I (1 M sorbitol, 50 mM tris base, 10 mM MgCl2 and 30 mM DTT) and incubated in the same buffer for 15 minutes at 25 °C, followed by centrifugation at 1500 rpm for 5 minutes. Supernatant was removed and cells were incubated with buffer- II (1 M sorbitol, 50 mM tris base, 10 mM MgCl2 and 1 mM DTT) supplemented with lyticase enzyme (≥1 µg/mL) used to digest the cell wall for 1 h at 25 °C. Buffer- II were removed by centrifugation and then cells were incubated with buffer- III (1 M sorbitol, 50 mM tris base and 10 mM MgCl2) for 20 minutes at room temperature. After the incubation cells were again centrifuged at 1500 rpm for 5 minutes and supernatant was discarded. Protoplasts then finally washed once with PBS and re-suspended in the same for further use. In each washing steps the volume of these protoplast buffers were 5 times to cell volume with pH 7.4.
For the detection of mitochondrial membrane potential changes in cells exposed with different concentrations of active tosylate congeners, the JC-10 mitochondrial membrane potential assay kit–microplate (abcam, Cambridge, UK) was used according to the manufacturer’s instructions. Protoplasts were prepared as described above at a concentration of 1 × 10^6 cells/ml. 90 µl of this suspension was added to each well in 96-well microplate (with black wall and clear bottom) followed by addition of 50 µl/well JC-10 dye-loading solution. […] Fluorescence intensity were monitored at Ex/Em = 490/525 nm and 540/590 nm with a BioTek Synergy HT microplate reader (BioTek Instruments, WA, USA) for ratio analysis. The ratio between aggregate (Em = 525 nm) and monomeric forms (Em = 590 nm) of JC-10, were measured to find the change in mitochondrial membrane potential. […]

Compound: C=CCc1ccc(OS(=O)(=O)c2ccc(C(=O)O)cc2)c(OC)c1 [ETC-7, 4-{[2-methoxy-4-(prop-2-en-1-yl)phenoxy]sulfonyl}benzoic acid]
- MFC (Candida albicans 4180): 8 µg/mL (≈ 23 µM)
- MIC (Candida albicans 4180; 37 °C, 24 h): 4 µg/mL (≈ 11.5 µM)
- MFC (Candida albicans 4179): 4 µg/mL (≈ 11.5 µM)
- MIC (Candida albicans 4179; 37 °C, 24 h): 2 µg/mL (≈ 5.74 µM)
- MFC (Candida albicans 4324): 8 µg/mL (≈ 23 µM)
- MIC (Candida albicans 4324; 37 °C, 24 h): 4 µg/mL (≈ 11.5 µM)
- MFC (Candida albicans 4135): 8 µg/mL (≈ 23 µM)
- MIC (Candida albicans 4135; 37 °C, 24 h): 4 µg/mL (≈ 11.5 µM)
- MFC (Candida albicans 4106): 4 µg/mL (≈ 11.5 µM)
- MIC (Candida albicans 4106; 37 °C, 24 h): 2 µg/mL (≈ 5.74 µM)
- TUNEL positive nuclei (DNA fragmentation) [1]: significant increase in proportion of TUNEL positive nuclei
- decrease in mitochondrial membrane potential ([2]; 0.5 × MIC): 1.04–1.58 folds
- decrease in mitochondrial membrane potential ([2]; 1 × MIC): 1.56–2.62 folds
- decrease in mitochondrial membrane potential ([2]; 2 × MIC): 3.55–4.46 folds

From paper PMC6985109, “Cellular apoptosis and necrosis as therapeutic targets for novel Eugenol Tosylate Congeners against Candida albicans” (Scientific Reports, 2020)
